According to US10551389B2, “Target binding molecules identified by kinetic target-guided synthesis” (UNIVERSITY OF SOUTH FLORIDA, priority 2013, dated 2020):
pIC50: −log10 of the molar value.

How the values were obtained:
[1] = biological target: Mcl-1 (Homo sapiens, UniProt Q07820); assay: Inhibition of Mcl-1 (disruption of Mcl-1/Bim interaction); type: binding; details: for % Inhibition (25 μM) Mcl-1 / inhibition at 25 µM: compound at 25 μM; for % Inhibition (50 μM) Mcl-1 / inhibition at 50 µM: compound at 50 μM
Method: (§1) In a subsequent study, a structurally diverse library of forty five thio acids and thirty eight sulfonyl azides (identified above) was screened in parallel against Mcl-1 and Bcl-XL using the above mentioned approach. Several potential hit combinations were identified (Table 3). All of these kinetic TGS hit compounds were synthesized (identified above and in Table 3). All the reactions were performed at 20-30 mg scale. The 9-fluorenylmethyl thioester was placed in a 2.0 mL vial and 3.5% DBU/dry DMF solution was added (per 1 μmol of thioester, 4.7 μL, of 3.5% DBU/dry DMF solution was added) and the reaction was stirred for one minute. Then the sulfonylazide (1 eq to thioester) was added to the reaction mixture and immediately bubbling was observed. After the reaction was completed (approximately one minute, monitored by LC-MS) water (200 μL) was added and the pH was adjusted to 7.0 using 1M HCl solution. The reaction mixture was extracted with DCM until there is no product in the aqueous layer (checked by TLC or LC-MS). The product was purified by flash chromatography. Testing of these acylsulfonamides has shown that the hit compounds disrupt the Bcl-XL/Bim or Mcl-1/Bim interaction (Table 3).

[2] = biological target: Bcl-XL (Homo sapiens, UniProt Q07817); assay: Inhibition of Bcl-XL (disruption of Bcl-XL/Bim interaction); type: binding; details: for % Inhibition (25 μM) Bcl-XL / inhibition at 25 µM: compound at 25 μM; for % Inhibition (50 μM) Bcl-XL / inhibition at 50 µM: compound at 50 μM
Method: as §1

Bcl-XL, sequence (Q07817 whole entry, species assumed): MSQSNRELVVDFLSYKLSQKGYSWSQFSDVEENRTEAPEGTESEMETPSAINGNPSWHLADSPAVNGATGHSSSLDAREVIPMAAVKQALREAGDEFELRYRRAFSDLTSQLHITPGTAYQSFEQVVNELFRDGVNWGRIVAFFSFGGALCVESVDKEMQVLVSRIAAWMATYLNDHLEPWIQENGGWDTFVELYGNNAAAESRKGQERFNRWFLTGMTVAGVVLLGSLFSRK
Mcl-1, sequence (Q07820 whole entry, species assumed): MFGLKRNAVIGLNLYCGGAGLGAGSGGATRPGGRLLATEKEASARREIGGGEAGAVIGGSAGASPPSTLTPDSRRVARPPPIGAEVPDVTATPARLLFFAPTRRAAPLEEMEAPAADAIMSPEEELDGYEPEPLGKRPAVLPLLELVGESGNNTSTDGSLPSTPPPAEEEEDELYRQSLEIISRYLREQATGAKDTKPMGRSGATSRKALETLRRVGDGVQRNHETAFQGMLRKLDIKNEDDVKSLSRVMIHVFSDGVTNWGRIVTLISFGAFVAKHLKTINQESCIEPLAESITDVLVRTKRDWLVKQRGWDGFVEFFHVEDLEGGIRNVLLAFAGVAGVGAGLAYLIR

Structure (SMILES) | % Inhibition (25 μM) Mcl-1 [1] [%] | % Inhibition (50 μM) Mcl-1 [1] [%] | inhibition at 50 µM [2] [%] | further results
O=C(NS(=O)(=O)c1ccc(CN2CCN(c3ccccc3)CC2)cc1)c1ccc(-c2ccc(F)cc2)cc1 [SZ1TA14] | 9.0 | 24.4 | – | % Inhibition (25 μM) Bcl-XL [2]: 9.6%; % Inhibition (50 μM) Bcl-XL [2]: <2.0%
CCOc1ccc(-c2ccc3c(c2)c(C(=O)NS(=O)(=O)c2ccc(CN4CCN(c5ccccc5)CC4)cc2)cn3C)cc1F [SZ1TA23] | 18.7 | 21.5 | – | –
O=C(NS(=O)(=O)c1ccc(CN2CCN(c3ccccc3)CC2)cc1)c1ccc2c(ccn2Cc2ccc(C(F)(F)F)cc2C(F)(F)F)c1 [SZ1TA30] | 11.8 | 2.6 | – | % Inhibition (25 μM) Bcl-XL [2]: <2.0%; % Inhibition (50 μM) Bcl-XL [2]: <2.0%
CN(CCc1ccccc1)Cc1ccc(S(=O)(=O)NC(=O)c2ccc(C(c3c[nH]c4ccccc34)c3c[nH]c4ccccc34)cc2)cc1 [SZ2TA31] | 14.2 | 16.2 | – | % Inhibition (25 μM) Bcl-XL [2]: 14.9%; % Inhibition (50 μM) Bcl-XL [2]: 9.4%
COc1ccccc1-c1ccc(C(=O)NS(=O)(=O)c2ccc(NCCSc3ccccc3)c([N+](=O)[O-])c2)cc1 [SZ4TA21] | 44.7 | 80.6 | – | –
O=C(NS(=O)(=O)c1ccc(NCCSc2ccccc2)c([N+](=O)[O-])c1)c1ccc2c(ccn2Cc2ccc(C(F)(F)F)cc2C(F)(F)F)c1 [SZ4TA30] | – | – | 42.6 | pIC50 [1]: 4.58; inhibition at 25 µM [1]: 68.7%; pIC50 [2]: < 4.30; inhibition at 25 µM [2]: 41.2%
CCOc1ccc(-c2ccc3c(c2)c(C(=O)NS(=O)(=O)c2ccc(CNCCSc4ccccc4)cc2)cn3C)cc1F [SZ6TA23] | <2.0 | <2.0 | – | –
CC1(C)CCN(c2ccc(C(=O)NS(=O)(=O)c3ccc4ccc(S(=O)(=O)NCCSc5ccccc5)cc4c3)cc2)CC1 [SZ7TA2] | – | – | 73 | pIC50 [1]: 4.77; inhibition at 25 µM [1]: 49.6%; inhibition at 50 µM [1]: 93.9%; pIC50 [2]: 4.54; inhibition at 25 µM [2]: 15.5%
COc1cc2c(cc1OC)C(c1ccccc1)N(Cc1ccc(S(=O)(=O)NC(=O)c3ccc(N4CCC(C)(C)CC4)cc3)cc1)CC2 (stereo not drawn) [SZ8TA2] | 14.8 | 24.9 | – | –
COc1cc2c(cc1OC)C(c1ccccc1)N(Cc1ccc(S(=O)(=O)NC(=O)c3ccc(-c4ccc(F)cc4)cc3)cc1)CC2 (stereo not drawn) [SZ8TA14] | – | – | 13.9 | inhibition at 25 µM [1]: 35.2%; inhibition at 50 µM [1]: 58.3%; inhibition at 25 µM [2]: 14.4%
COc1cc2c(cc1OC)C(c1ccccc1)N(Cc1ccc(S(=O)(=O)NC(=O)CCCN3C(=O)C(c4ccc(F)cc4F)=C(c4ccc(F)cc4F)C3=O)cc1)CC2 (stereo not drawn) [SZ8TA20] | – | – | < 2 | inhibition at 25 µM [1]: 23.5%; inhibition at 25 µM [2]: 9.1%
COc1cc2c(cc1OC)C(c1ccccc1)N(Cc1ccc(S(=O)(=O)NC(=O)c3ccc(Cc4ccc(OC)c(OC)c4OC)cc3)cc1)CC2 (stereo not drawn) [SZ8TA24] | 43.6 | 79.2 | – | –
COc1cc2c(cc1OC)C(c1ccccc1)N(Cc1ccc(S(=O)(=O)NC(=O)c3ccc(C(c4c[nH]c5ccccc45)c4c[nH]c5ccccc45)cc3)cc1)CC2 (stereo not drawn) [SZ8TA31] | <2.0 | <2.0 | – | % Inhibition (25 μM) Bcl-XL [2]: <2.0%; % Inhibition (50 μM) Bcl-XL [2]: <2.0%
[N-]=[N+]=NS(=O)(=O)c1ccc(CN(CCSc2ccccc2)Cc2ccc(S(=O)(=O)NC(=O)c3ccccc3)cc2)cc1 [SZ9TA1] | – | – | 79.5 | pIC50 [1]: 4.70
Cc1nc(-c2ccccc2)sc1C(=O)NS(=O)(=O)c1ccc(CN(CCSc2ccccc2)Cc2ccc(S(=O)(=O)N=[N+]=[N-])cc2)cc1 [SZ9TA3] | – | – | 21.6 | pIC50 [1]: 4.64; inhibition at 50 µM [1]: 83.1%
COc1cc(OC)cc(C(=O)NS(=O)(=O)c2ccc(CN(CCSc3ccccc3)Cc3ccc(S(=O)(=O)N=[N+]=[N-])cc3)cc2)c1 [SZ9TA5] | – | – | 60.3 | pIC50 [1]: 5.09; inhibition at 25 µM [1]: 50%; inhibition at 50 µM [1]: > 99%; pIC50 [2]: 4.44; inhibition at 25 µM [2]: 8.6%
[N-]=[N+]=NS(=O)(=O)c1ccc(CN(CCSc2ccccc2)Cc2ccc(S(=O)(=O)NC(=O)c3cccc4ccccc34)cc2)cc1 [SZ9TA7] | – | – | 44.5 | pIC50 [1]: 5.09
[N-]=[N+]=NS(=O)(=O)c1ccc(CN(CCSc2ccccc2)Cc2ccc(S(=O)(=O)NC(=O)c3ccc(-c4ccc(F)cc4)cc3)cc2)cc1 [SZ9TA14] | 30 | 42.5 | – | % Inhibition (25 μM) Bcl-XL [2]: 8.4%; % Inhibition (50 μM) Bcl-XL [2]: 7.0%
[N-]=[N+]=NS(=O)(=O)c1ccc(CN(CCSc2ccccc2)Cc2ccc(S(=O)(=O)NC(=O)c3ccc(CCc4ccccn4)cc3)cc2)cc1 [SZ9TA17] | – | – | 63.5 | pIC50 [1]: 4.69; inhibition at 25 µM [1]: 69.3%; inhibition at 50 µM [1]: 103%; inhibition at 25 µM [2]: 50%
[N-]=[N+]=NS(=O)(=O)c1ccc(CN(CCSc2ccccc2)Cc2ccc(S(=O)(=O)NC(=O)CCCN3C(=O)C(c4ccc(F)cc4F)=C(c4ccc(F)cc4F)C3=O)cc2)cc1 [SZ9TA20] | – | – | < 2 | inhibition at 25 µM [1]: 15.7%; inhibition at 50 µM [1]: 6.9%; inhibition at 25 µM [2]: < 2%
[N-]=[N+]=NS(=O)(=O)c1ccc(CN(CCSc2ccccc2)Cc2ccc(S(=O)(=O)NC(=O)c3ccc(-c4ccccn4)cc3)cc2)cc1 [SZ9TA25] | – | – | < 2 | inhibition at 25 µM [1]: 43.1%; inhibition at 25 µM [2]: 18.6%
CC1(C)CCN(c2ccc(C(=O)NS(=O)(=O)c3ccc(CN(CCSc4ccccc4)Cc4ccc(S(N)(=O)=O)cc4)cc3)cc2)CC1 [SZ10TA2] | – | – | 52.1 | pIC50 [1]: 4.80; inhibition at 25 µM [1]: 41.7%; inhibition at 50 µM [1]: 94.7%; pIC50 [2]: 4.36
NS(=O)(=O)c1ccc(CN(CCSc2ccccc2)Cc2ccc(S(=O)(=O)NC(=O)Cn3c4ccccc4c4ccccc43)cc2)cc1 [SZ10TA15] | 35.2 | 37.4 | – | % Inhibition (25 μM) Bcl-XL [2]: 9.4%; % Inhibition (50 μM) Bcl-XL [2]: <2.0%
NS(=O)(=O)c1ccc(CN(CCSc2ccccc2)Cc2ccc(S(=O)(=O)NC(=O)CCCN3C(=O)C(c4ccc(F)cc4F)=C(c4ccc(F)cc4F)C3=O)cc2)cc1 [SZ10TA20] | – | – | < 2 | inhibition at 25 µM [1]: 27.8%; inhibition at 50 µM [1]: 7.6%; inhibition at 25 µM [2]: 3.8%
CC(C)(C)c1ccc(-c2ccc(S(=O)(=O)NC(=O)c3ccc(-c4ccccn4)cc3)cc2)cc1 [SZ11TA25] | – | – | – | inhibition at 25 µM [1]: 20.1%; inhibition at 50 µM [1]: 65.8%
O=C(NS(=O)(=O)c1ccc(CN(CCSc2ccccc2)Cc2c(F)cccc2Cl)cc1)c1cccc2ccccc12 [SZ15TA7] | – | – | – | pIC50 [1]: 4.81

The next lines start with results.

% Inhibition (25 μM) Mcl-1 [1] [%] | % Inhibition (50 μM) Mcl-1 [1] [%] | inhibition at 50 µM [2] [%] | Structure (SMILES) | further results
52.3 | 57.3 | – | COc1ccccc1-c1ccc(C(=O)NS(=O)(=O)c2ccc(CN(CCSc3ccccc3)Cc3ccc(S(N)(=O)=O)cc3)cc2)cc1 [SZ10TA21] | –
43.9 | 93.6 | – | NS(=O)(=O)c1ccc(CN(CCSc2ccccc2)Cc2ccc(S(=O)(=O)NC(=O)c3ccc(-c4ccccn4)cc3)cc2)cc1 [SZ10TA25] | % Inhibition (25 μM) Bcl-XL [2]: 33.9%; % Inhibition (50 μM) Bcl-XL [2]: 53.4%
2.8 | 12.4 | – | NS(=O)(=O)c1ccc(CN(CCSc2ccccc2)Cc2ccc(S(=O)(=O)NC(=O)c3ccc4oc(-c5ccccc5)cc4c3)cc2)cc1 [SZ10TA41] | –
7.1 | 54.1 | – | CC1(C)CCN(c2ccc(C(=O)NS(=O)(=O)c3ccc(CNc4cccc([N+](=O)[O-])c4)cc3)cc2)CC1 [SZ12TA2] | –
6.1 | 21.5 | – | CCOc1ccc(-c2ccc3c(c2)c(C(=O)NS(=O)(=O)c2ccc(CNc4cccc([N+](=O)[O-])c4)cc2)cn3C)cc1F [SZ12TA23] | –
26.0 | 80.9 | – | COc1ccccc1-c1ccc(C(=O)NS(=O)(=O)c2ccc(-c3ccc(C(F)(F)F)cc3)cc2)cc1 [SZ16TA21] | –
65.1 | 74.1 | – | COc1cccc(CN(CCSc2ccccc2)Cc2ccc(S(=O)(=O)NC(=O)c3ccc(Cc4ccc(OC)c(OC)c4OC)cc3)cc2)c1 [SZ17TA24] | –
4.5 | <2.0 | – | CC1(C)CCN(c2ccc(C(=O)NS(=O)(=O)CCN3CCc4ccccc4C3)cc2)CC1 [SZ23TA2] | –
18.1 | 11.4 | – | O=C(NS(=O)(=O)CCN1CCC(Cc2ccccc2)CC1)c1ccc2c(ccn2Cc2ccc(C(F)(F)F)cc2C(F)(F)F)c1 [SZ24TA30] | –
18.8 | 87.2 | – | Cc1nc(-c2ccccc2)sc1C(=O)NS(=O)(=O)c1ccc(-c2ccc(Oc3ccccc3)cc2)cc1 [SZ35TA3] | –
28.6 | 87.8 | – | O=C(NS(=O)(=O)c1ccc(-c2ccc(Oc3ccccc3)cc2)cc1)c1cccc2ccccc12 [SZ35TA7] | –
18.8 | 89.2 | – | O=C(NS(=O)(=O)c1ccc(-c2ccc(Oc3ccccc3)cc2)cc1)c1ccc(CCc2ccccn2)cc1 [SZ35TA17] | –
72.3 | 76.4 | – | COc1ccc(Cc2ccc(C(=O)NS(=O)(=O)c3ccc(-c4ccc(Oc5ccccc5)cc4)cc3)cc2)c(OC)c1OC [SZ35TA24] | –
